Values joined by “and” are separate entries in the source; they are usually repeats but may differ in a detail not shown here. Equal entries are not always repeated. Inconclusive results and toxic doses are left out. Rule for the calls: active = survival T/C of 150% or more; inactive = T/C below 125% in these data.
System: P388 leukemia ip, CD2F1 mice, survival T/C
Experiment: NCI In Vivo Anticancer Drug Screen. Data for tumor model P388 Leukemia (intraperitoneal) in CD2F1 (CDF1) mice
Details: endpoint: median survival time, higher = longer survival
Summary of the method: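 Mice carrying the transplanted tumor received test compound or vehicle. Survival was recorded in each group, and the value is the treated-group measurement divided by that of the vehicle-treated control group.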

[1] = dose: 100.0 mg/kg/injection, schedule: Q04DX003 (ip), vehicle: Klucel (hydroxypropylcellulose) (HPC)
[2] = dose: 200.0 mg/kg/injection, schedule: Q04DX003 (ip), vehicle: Klucel (hydroxypropylcellulose) (HPC)
[3] = dose: 400.0 mg/kg/injection, schedule: Q04DX003 (ip), vehicle: Klucel (hydroxypropylcellulose) (HPC)
[4] = dose: 60.0 mg/kg/injection, schedule: Q01DX005 (ip), vehicle: Klucel (hydroxypropylcellulose) (HPC)
[5] = dose: 120.0 mg/kg/injection, schedule: Q01DX005 (ip), vehicle: Klucel (hydroxypropylcellulose) (HPC)
[6] = dose: 240.0 mg/kg/injection, schedule: Q01DX005 (ip), vehicle: Klucel (hydroxypropylcellulose) (HPC)
[7] = dose: 50.0 mg/kg/injection, schedule: Q01DX005 (ip), vehicle: saline with Tween-80
[8] = dose: 100.0 mg/kg/injection, schedule: Q01DX005 (ip), vehicle: saline with Tween-80
[9] = dose: 200.0 mg/kg/injection, schedule: Q01DX005 (ip), vehicle: saline with Tween-80
[10] = dose: 120.0 mg/kg/injection, schedule: Q01DX005 (ip), vehicle: saline
[11] = dose: 50.0 mg/kg/injection, schedule: Q01DX009 (ip), vehicle: Klucel (hydroxypropylcellulose) (HPC)
[12] = dose: 100.0 mg/kg/injection, schedule: Q01DX009 (ip), vehicle: Klucel (hydroxypropylcellulose) (HPC)
[13] = dose: 200.0 mg/kg/injection, schedule: Q01DX009 (ip), vehicle: Klucel (hydroxypropylcellulose) (HPC)
[14] = dose: 60.0 mg/kg/injection, schedule: Q01DX005 (ip), vehicle: saline with Tween-80
[15] = dose: 120.0 mg/kg/injection, schedule: Q01DX005 (ip), vehicle: saline with Tween-80
[16] = dose: 240.0 mg/kg/injection, schedule: Q01DX005 (ip), vehicle: saline with Tween-80

Measured: T/C

N=C(N)c1ccc(OCCCCCCOc2ccc(C(=N)N)cc2I)cc1
inactive: dose: 3.12 mg/kg/injection, schedule: Q01DX005 (ip), vehicle: Klucel (hydroxypropylcellulose) (HPC) 97 % of control | dose: 6.25 mg/kg/injection, schedule: Q01DX005 (ip), vehicle: Klucel (hydroxypropylcellulose) (HPC) 106 % of control | dose: 12.5 mg/kg/injection, schedule: Q01DX005 (ip), vehicle: Klucel (hydroxypropylcellulose) (HPC) 107 % of control and 97 % of control

C/C(=N\N=C(/[Se])N1CCN(c2ccc(F)cc2)CC1)c1ccccn1
inactive: [1] 101 % of control | [2] 108 % of control | [3] 100 % of control

COc1cccc(C2c3cc4c(cc3OC(O)C2C)OCO4)c1O (stereo not drawn)
inactive: [4] 99 % of control | [5] 99 % of control | [6] 100 % of control

O=C1NC(=O)C2(N1)C1CCCCC2C(c2ccccc2)NC1c1ccccc1 (stereo not drawn)
inactive: dose: 100.0 mg/kg/injection, schedule: Q01DX001 (ip), vehicle: saline with Tween-80 100 % of control | dose: 200.0 mg/kg/injection, schedule: Q01DX001 (ip), vehicle: saline with Tween-80 98 % of control | dose: 400.0 mg/kg/injection, schedule: Q01DX001 (ip), vehicle: saline with Tween-80 96 % of control

CC1CCCCN1c1cc2nc[nH]c(=O)c2cc1[N+](=O)[O-] (stereo not drawn)
inactive: [1] 108 % of control | [2] 99 % of control | [3] 100 % of control

COc1ccc(Nc2ccc([N+](=O)[O-])c3nonc23)cc1
inactive: [7] 92 % of control | [8] 87 % of control

NC(=O)c1nc2c(Nc3cccc(Cl)c3)nc(N)nc2nc1N
inactive: dose: 100.0 mg/kg/injection, schedule: Q01DX001 (ip), vehicle: saline 100 % of control | dose: 200.0 mg/kg/injection, schedule: Q01DX001 (ip), vehicle: saline 104 % of control | dose: 400.0 mg/kg/injection, schedule: Q01DX001 (ip), vehicle: saline 104 % of control

CC(=O)CC(=O)Cc1oc2c(C(C)=O)c(O)c(C)c(O)c2c1C
inactive: dose: 25.0 mg/kg/injection, schedule: Q01DX009 (ip), vehicle: saline with Tween-80 90 % of control | dose: 50.0 mg/kg/injection, schedule: Q01DX009 (ip), vehicle: saline with Tween-80 90 % of control | dose: 100.0 mg/kg/injection, schedule: Q01DX009 (ip), vehicle: saline with Tween-80 88 % of control | dose: 200.0 mg/kg/injection, schedule: Q01DX009 (ip), vehicle: saline with Tween-80 90 % of control

CCB(CC)OC1OC(C2COB(CC)O2)C2OB(CC)OC12 (stereo not drawn)
inactive: [7] 103 % of control | [8] 95 % of control | [9] 101 % of control

CCCCCCCCCCCCCCCC(CCCCCC)CCCCCC
inactive: dose: 50.0 mg/kg/injection, schedule: Q01DX001 (ip), vehicle: saline sonified 113 % of control | dose: 100.0 mg/kg/injection, schedule: Q01DX001 (ip), vehicle: saline sonified 100 % of control | dose: 200.0 mg/kg/injection, schedule: Q01DX001 (ip), vehicle: saline sonified 109 % of control

CC(C)(C)C1C=Nn2c(=O)n(-c3ccccc3)c(=O)n21 (stereo not drawn)
inactive: dose: 25.0 mg/kg/injection, schedule: Q04DX003 (ip), vehicle: other 91 % of control | dose: 100.0 mg/kg/injection, schedule: Q04DX003 (ip), vehicle: other 94 % of control | dose: 200.0 mg/kg/injection, schedule: Q04DX003 (ip), vehicle: other 98 % of control | dose: 400.0 mg/kg/injection, schedule: Q04DX003 (ip), vehicle: other 100 % of control

O=C(Nc1cccc2c1CCCC2)c1cc2ccccc2cc1O
inactive: [7] 92 % of control | [8] 91 % of control | [9] 91 % of control

COC(=O)CC(C(=O)CSC(S(=O)(=O)c1ccccc1)S(=O)(=O)c1ccccc1)C(=O)OC (stereo not drawn)
inactive: dose: 50.0 mg/kg/injection, schedule: Q01DX005 (ip), vehicle: Klucel (hydroxypropylcellulose) (HPC) 99 % of control | dose: 100.0 mg/kg/injection, schedule: Q01DX005 (ip), vehicle: Klucel (hydroxypropylcellulose) (HPC) 101 % of control | dose: 200.0 mg/kg/injection, schedule: Q01DX005 (ip), vehicle: Klucel (hydroxypropylcellulose) (HPC) 100 % of control

CN(C)CCC(=O)C(=Cc1ccco1)C(=O)CCN(C)C
inactive: dose: 60.0 mg/kg/injection, schedule: Q01DX005 (ip), vehicle: saline 100 % of control | [10] 104 % of control | dose: 240.0 mg/kg/injection, schedule: Q01DX005 (ip), vehicle: saline 109 % of control

CCCCCc1cc(O)cc2c1Oc1cc(O)cc(C(=O)CCCC)c1C(=O)O2
inactive: [7] 98 % of control | [8] 100 % of control | [9] 107 % of control

COc1ccc(/C=C/C(=O)C(C)(CN(C)C)CN(C)C)cc1
inactive: dose: 30.0 mg/kg/injection, schedule: Q01DX005 (ip), vehicle: saline 123 % of control | [10] 121 % of control

Cc1ccc(NC(=S)SCc2ccc(Cl)c(Cl)c2)cc1C
inactive: [11] 116 % of control | dose: 50.0 mg/kg/injection, schedule: Q01DX009 (ip), vehicle: suspension in saline 96 % of control | [12] 113 % of control | dose: 100.0 mg/kg/injection, schedule: Q01DX009 (ip), vehicle: suspension in saline 100 % of control | [13] 109 % of control | dose: 200.0 mg/kg/injection, schedule: Q01DX009 (ip), vehicle: suspension in saline 101 % of control

C/C(=C\C(=O)Nc1ccc(S(=O)(=O)F)cc1)c1ccc([N+](=O)[O-])cc1
inactive: [14] 100 % of control | [15] 102 % of control | [16] 90 % of control

O=C(Nc1c(Cl)cccc1Cl)OC1CCCCCCCCCCC1
inactive: [11] 100 % of control | [12] 92 % of control | [13] 86 % of control

CCN(CC)C(=O)CCc1ccc(Cl)cc1
inactive: [4] 104 % of control | [5] 95 % of control | [6] 102 % of control

O=c1cc[nH]c2ccc3ccccc3c12
inactive: dose: 100.0 mg/kg/injection, schedule: Q01DX001 (ip), vehicle: Klucel (hydroxypropylcellulose) (HPC) 97 % of control | dose: 200.0 mg/kg/injection, schedule: Q01DX001 (ip), vehicle: Klucel (hydroxypropylcellulose) (HPC) 96 % of control

C=C(C)CC1(CCCCCCCCCC)C(=O)NC(=O)NC1=O
inactive: dose: 50.0 mg/kg/injection, schedule: Q04DX003 (ip), vehicle: saline with Tween-80 105 % of control | dose: 100.0 mg/kg/injection, schedule: Q04DX003 (ip), vehicle: saline with Tween-80 102 % of control | dose: 200.0 mg/kg/injection, schedule: Q04DX003 (ip), vehicle: saline with Tween-80 93 % of control

COC(=O)[CH2][Sn]([CH3])([CH3])[CH2]C(=O)OC
inactive: dose: 12.5 mg/kg/injection, schedule: Q01DX005 (ip), vehicle: saline 114 % of control | dose: 25.0 mg/kg/injection, schedule: Q01DX005 (ip), vehicle: saline 124 % of control | dose: 50.0 mg/kg/injection, schedule: Q01DX005 (ip), vehicle: saline 123 % of control

CC(C)(C)OC(=O)NC(COCc1ccccc1)C(=O)O (stereo not drawn)
inactive: [7] 103 % of control | [8] 98 % of control | [9] 97 % of control

CC1CCN(C(=S)NNC(C)c2cc3ccccc3cn2)CC1 (stereo not drawn)
inactive: dose: 6.25 mg/kg/injection, schedule: Q01DX005 (ip), vehicle: saline with Tween-80 114 % of control

COC(=O)c1nc(NC#N)[nH]c(=O)c1CCCCCc1cnc(NC#N)nc1
inactive: [14] 100 % of control | [15] 100 % of control | [16] 97 % of control
